Target: human F508del-CFTR (Homo sapiens, UniProt P13569, DEL508-508)
Experiment: F508del-CFTR cell surface expression (corrector activity), DiscoveRx ß-galactosidase complementation chemiluminescence assay in recombinant U2OS cell line;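 note: U2OS cells co-expressing ProLink-tagged F508del-CFTR and a membrane-anchored enzyme acceptor, where more surface CFTR restores β-galactosidase activity measured by chemiluminescence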
Conditions: for EC50: EC50, F508del-CFTR cell surface expression, U2OS cells, 16h compound incubation, geomean values; for Emax: U2OS, in relation to Emax of corrector lumacaftor (=100%), arithmetic mean values

Sequence of human F508del-CFTR (P13569 with tags, fused parts or gaps DEL508-508): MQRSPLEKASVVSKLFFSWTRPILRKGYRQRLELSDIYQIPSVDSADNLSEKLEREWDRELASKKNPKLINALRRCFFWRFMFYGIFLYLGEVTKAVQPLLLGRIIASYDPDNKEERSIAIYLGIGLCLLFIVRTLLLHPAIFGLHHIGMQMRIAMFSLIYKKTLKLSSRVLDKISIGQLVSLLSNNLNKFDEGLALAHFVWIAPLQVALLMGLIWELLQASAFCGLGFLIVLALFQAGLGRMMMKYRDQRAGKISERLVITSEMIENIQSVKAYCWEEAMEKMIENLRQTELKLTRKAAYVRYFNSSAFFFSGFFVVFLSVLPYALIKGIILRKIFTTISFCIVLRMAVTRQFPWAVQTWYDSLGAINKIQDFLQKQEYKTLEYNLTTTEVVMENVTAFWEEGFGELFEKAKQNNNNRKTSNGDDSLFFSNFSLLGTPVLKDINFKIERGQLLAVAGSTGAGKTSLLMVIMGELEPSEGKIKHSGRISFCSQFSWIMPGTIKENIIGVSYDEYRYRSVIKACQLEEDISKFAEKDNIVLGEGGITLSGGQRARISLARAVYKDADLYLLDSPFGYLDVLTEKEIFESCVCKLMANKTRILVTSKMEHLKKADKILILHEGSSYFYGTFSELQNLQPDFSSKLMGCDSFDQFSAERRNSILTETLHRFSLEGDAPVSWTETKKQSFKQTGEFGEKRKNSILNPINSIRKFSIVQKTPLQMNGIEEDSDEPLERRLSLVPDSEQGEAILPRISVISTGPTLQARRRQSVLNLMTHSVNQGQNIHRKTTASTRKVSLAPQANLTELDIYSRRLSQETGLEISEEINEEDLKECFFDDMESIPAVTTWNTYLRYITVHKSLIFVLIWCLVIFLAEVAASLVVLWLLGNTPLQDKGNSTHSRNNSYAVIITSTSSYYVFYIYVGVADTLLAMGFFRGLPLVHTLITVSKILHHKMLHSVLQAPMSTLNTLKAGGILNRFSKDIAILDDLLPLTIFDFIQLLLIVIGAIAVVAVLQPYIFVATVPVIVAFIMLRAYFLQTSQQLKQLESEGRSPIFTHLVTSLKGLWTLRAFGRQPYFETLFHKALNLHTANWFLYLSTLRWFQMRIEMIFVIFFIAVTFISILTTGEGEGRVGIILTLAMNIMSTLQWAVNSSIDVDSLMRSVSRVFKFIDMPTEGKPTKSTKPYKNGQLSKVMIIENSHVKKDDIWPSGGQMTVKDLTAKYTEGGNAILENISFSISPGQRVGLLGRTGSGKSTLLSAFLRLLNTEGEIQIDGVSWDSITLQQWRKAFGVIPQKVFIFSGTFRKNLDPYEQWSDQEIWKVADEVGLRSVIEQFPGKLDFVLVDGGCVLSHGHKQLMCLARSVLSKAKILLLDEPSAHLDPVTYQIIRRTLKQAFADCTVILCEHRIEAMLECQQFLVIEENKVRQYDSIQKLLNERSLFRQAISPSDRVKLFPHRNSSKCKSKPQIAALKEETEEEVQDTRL

Row | EC50 [nM] | Emax [%] | SMILES
1 | 167 | 195 | COc1cc2c(cc1OC)C(=O)N[C@H](C(=O)NCCc1ccc3c(c1)OCCC3)CC(=O)N(C)[C@@H](CC(C)C)C(=O)N(CCC1CCCCC1)CC(=O)N[C@H](Cc1ccccc1)CO2 [Example 596, (3R,9S,13S)-3-benzyl-N-(2-(chroman-7-yl)ethyl)-7-(2-cyclohexylethyl)-9-isobutyl-17,18-dimethoxy-10-methyl-5,8,11,15-tetraoxo-2,3,4,5,6,7,8,9,10,11,12,13,14,15-tetradecahydrobenzo[p][1]oxa[4,7,10,14]tetraazacycloheptadecine-13-carboxamide]
2 | 168 | 211 | COc1cc2c(cc1OC)C(=O)N[C@H](C(=O)NCCc1ccc3c(c1)OCC3)CC(=O)N(C)[C@@H](CC(C)C)C(=O)N(CCC1CCCCC1)CC(=O)N[C@H](Cc1ccccc1)CO2 [Example 597, (3R,9S,13S)-3-benzyl-7-(2-cyclohexylethyl)-N-(2-(2,3-dihydrobenzofuran-6-yl)ethyl)-9-isobutyl-17,18-dimethoxy-10-methyl-5,8,11,15-tetraoxo-2,3,4,5,6,7,8,9,10,11,12,13,14,15-tetradecahydrobenzo[p][1]oxa[4,7,10,14]tetraazacycloheptadecine-13-carboxamide]
3 | 151 | 299 | CC(C)C[C@H]1C(=O)N(CCC2CCCCC2)CC(=O)N[C@H](Cc2ccccc2)COc2ccc3ccccc3c2C(=O)N[C@H](C(=O)NCCc2ccc3c(c2)OCCC3)CC(=O)N1C [Example 599, (3S,7S,13R)-13-benzyl-N-(2-(chroman-7-yl)ethyl)-9-(2-cyclohexylethyl)-7-isobutyl-6-methyl-1,5,8,11-tetraoxo-1,2,3,4,5,6,7,8,9,10,11,12,13,14-tetradecahydronaphtho[1,2-p][1]oxa[4,7,10,14]tetraazacycloheptadecine-3-carboxamide]
4 | 97 | 286 | CC(C)C[C@H]1C(=O)N(CCC2CCCCC2)CC(=O)N[C@H](Cc2ccccc2)COc2ccc3ccccc3c2C(=O)N[C@H](C(=O)NCCc2ccc3c(c2)OCC3)CC(=O)N1C [Example 600, (3S,7S,13R)-13-benzyl-9-(2-cyclohexylethyl)-N-(2-(2,3-dihydrobenzofuran-6-yl)ethyl)-7-isobutyl-6-methyl-1,5,8,11-tetraoxo-1,2,3,4,5,6,7,8,9,10,11,12,13,14-tetradecahydronaphtho[1,2-p][1]oxa[4,7,10,14]tetraazacycloheptadecine-3-carboxamide]
5 | 637 | 257 | CCN1CCN2C(=O)[C@H](CC(C)C)N(C)C(=O)C[C@@H](C(=O)NCCc3cccc(OC)c3)NC(=O)c3c(OC)cccc3OC[C@@H](Cc3ccccc3)NC(=O)[C@H]2C1 [Example 605, (7S,11S,20R,22aR)-20-benzyl-2-ethyl-7-isobutyl-14-methoxy-N-(3-methoxyphenethyl)-8-methyl-6,9,13,22-tetraoxo-1,3,4,6,7,8,9,10,11,12,13,19,20,21,22,22a-hexadecahydro-2H-benzo[p]pyrazino[2,1-f][1]oxa[4,7,10,14]tetraazacycloheptadecine-11-carboxamide]
6 | 521 | 150 | Cc1cc(CCNC(=O)[C@@H]2CC(=O)N(C)[C@@H](CC(C)C)C(=O)N3CCCC[C@H]3C(=O)N[C@H](Cc3ccccc3)COc3ccc4ccccc4c3C(=O)N2)on1 [Example 606, (4aS,7R,18S,22S)-7-benzyl-22-isobutyl-21-methyl-N-(2-(3-methylisoxazol-5-yl)ethyl)-5,16,20,23-tetraoxo-2,3,4,4a,5,6,7,8,16,17,18,19,20,21,22,23-hexadecahydro-1H-naphtho[1,2-p]pyrido[2,1-f][1]oxa[4,7,10,14]tetraazacycloheptadecine-18-carboxamide]
7 | 121 | 283 | Cc1cc(CCNC(=O)[C@@H]2CC(=O)N(C)[C@@H](CC(C)C)C(=O)N3CCCC[C@@H]3C(=O)N[C@H](Cc3ccccc3)COc3ccc4ccccc4c3C(=O)N2)on1 [Example 607, (4aR,7R,18S,22S)-7-benzyl-22-isobutyl-21-methyl-N-(2-(3-methylisoxazol-5-yl)ethyl)-5,16,20,23-tetraoxo-2,3,4,4a,5,6,7,8,16,17,18,19,20,21,22,23-hexadecahydro-1H-naphtho[1,2-p]pyrido[2,1-f][1]oxa[4,7,10,14]tetraazacycloheptadecine-18-carboxamide]
8 | 804 | 267 | Cc1cc(CCNC(=O)[C@@H]2CC(=O)N(C)[C@@H](CC(C)C)C(=O)N3CCOC[C@@H]3C(=O)N[C@H](Cc3ccccc3)COc3ccc4ccccc4c3C(=O)N2)on1 [Example 608, (4aR,7R,18S,22S)-7-benzyl-22-isobutyl-21-methyl-N-(2-(3-methylisoxazol-5-yl)ethyl)-5,16,20,23-tetraoxo-1,2,4,4a,5,6,7,8,16,17,18,19,20,21,22,23-hexadecahydronaphtho[1,2-p][1,4]oxazino[3,4-f][1]oxa[4,7,10,14]tetraazacycloheptadecine-18-carboxamide]
9 | 574 | 320 | COc1cc(OC)c2c(c1)OC[C@@H](Cc1ccccc1)NC(=O)[C@H]1CCCCN1C(=O)[C@H](CC(C)C)N(C)C(=O)C[C@@H](C(=O)NCCc1cc(C)no1)NC2=O [Example 609, (7S,11S,20R,22aR)-20-benzyl-7-isobutyl-14,16-dimethoxy-8-methyl-N-(2-(3-methylisoxazol-5-yl)ethyl)-6,9,13,22-tetraoxo-1,3,4,6,7,8,9,10,11,12,13,19,20,21,22,22a-hexadecahydro-2H-benzo[p]pyrido[2,1-f][1]oxa[4,7,10,14]tetraazacycloheptadecine-11-carboxamide]

Row | SMILES | EC50 [nM] | Emax [%]
10 | COc1cccc(CCNC(=O)[C@@H]2CC(=O)N(C)[C@@H](CC(C)C)C(=O)N(C)CC(=O)N[C@H](Cc3ccccc3)COc3ccc4ccccc4c3C(=O)N2)c1 [Example 595, (3S,7S,13R)-13-benzyl-7-isobutyl-N-(3-methoxyphenethyl)-6,9-dimethyl-1,5,8,11-tetraoxo-1,2,3,4,5,6,7,8,9,10,11,12,13,14-tetradecahydronaphtho[1,2-p][1]oxa[4,7,10,14]tetraazacycloheptadecine-3-carboxamide] | 332 | 233
11 | COc1cccc(CCNC(=O)[C@@H]2CC(=O)N(C)[C@@H](CC(C)C)C(=O)N(C)CC(=O)N[C@H](Cc3ccccc3)COc3ccc4nc(C)oc4c3C(=O)N2)c1 [Example 598, (8R,14S,18S)-8-benzyl-14-isobutyl-N-(3-methoxyphenethyl)-2,12,15-trimethyl-10,13,16,20-tetraoxo-7,8,9,10,11,12,13,14,15,16,17,18,19,20-tetradecahydrooxazolo[4′,5′:5,6]benzo[1,2-p][1]oxa[4,7,10,14]tetraazacycloheptadecine-18-carboxamide] | 759 | 312
12 | COc1cccc(CCNC(=O)[C@@H]2CC(=O)N(C)[C@@H](CC(C)C)C(=O)N3CCCC[C@H]3C(=O)N[C@H](Cc3ccccc3)COc3cc(OC)cc(OC)c3C(=O)N2)c1 [Example 601, (7S,11S,20R,22aS)-20-benzyl-7-isobutyl-14,16-dimethoxy-N-(3-methoxyphenethyl)-8-methyl-6,9,13,22-tetraoxo-1,3,4,6,7,8,9,10,11,12,13,19,20,21,22,22a-hexadecahydro-2H-benzo[p]pyrido[2,1-f][1]oxa[4,7,10,14]tetraazacycloheptadecine-11-carboxamide] | 589 | 138
13 | COc1cccc(CCNC(=O)[C@@H]2CC(=O)N(C)[C@@H](CC(C)C)C(=O)N3CCCC[C@@H]3C(=O)N[C@H](Cc3ccccc3)COc3cc(OC)cc(OC)c3C(=O)N2)c1 [Example 602, (7S,11S,20R,22aR)-20-benzyl-7-isobutyl-14,16-dimethoxy-N-(3-methoxyphenethyl)-8-methyl-6,9,13,22-tetraoxo-1,3,4,6,7,8,9,10,11,12,13,19,20,21,22,22a-hexadecahydro-2H-benzo[p]pyrido[2,1-f][1]oxa[4,7,10,14]tetraazacycloheptadecine-11-carboxamide] | 286 | 299
14 | COc1cccc(CCNC(=O)[C@@H]2CC(=O)N(C)[C@@H](CC(C)C)C(=O)N3CCCC[C@@H]3C(=O)N[C@H](Cc3ccccc3)COc3ccc4ccccc4c3C(=O)N2)c1 [Example 603, (4aR,7R,18S,22S)-7-benzyl-22-isobutyl-N-(3-methoxyphenethyl)-21-methyl-5,16,20,23-tetraoxo-2,3,4,4a,5,6,7,8,16,17,18,19,20,21,22,23-hexadecahydro-1H-naphtho[1,2-p]pyrido[2,1-f][1]oxa[4,7,10,14]tetraazacycloheptadecine-18-carboxamide] | 205 | 301
15 | COc1cccc(CCNC(=O)[C@@H]2CC(=O)N(C)[C@@H](CC(C)C)C(=O)N3CCCC[C@H]3C(=O)N[C@H](Cc3ccccc3)COc3ccc4ccccc4c3C(=O)N2)c1 [Example 604, (4aS,7R,18S,22S)-7-benzyl-22-isobutyl-N-(3-methoxyphenethyl)-21-methyl-5,16,20,23-tetraoxo-2,3,4,4a,5,6,7,8,16,17,18,19,20,21,22,23-hexadecahydro-1H-naphtho[1,2-p]pyrido[2,1-f][1]oxa[4,7,10,14]tetraazacycloheptadecine-18-carboxamide] | 354 | 103
16 | CC(C)C[C@H]1C(=O)N(CCC2CCCCC2)CC(=O)N[C@H](Cc2ccccc2)COc2cnc3ccccc3c2C(=O)N[C@H](C(=O)NCCc2ccc3c(c2)OCO3)CC(=O)N1C [Example 610, (3S,7S,13R)-N-(2-(benzo[d][1,3]dioxol-5-yl)ethyl)-13-benzyl-9-(2-cyclohexylethyl)-7-isobutyl-6-methyl-1,5,8,11-tetraoxo-1,2,3,4,5,6,7,8,9,10,11,12,13,14-tetradecahydro-[1]oxa[4,7,10,14]tetraazacycloheptadecino[17,16-c]quinoline-3-carboxamide] | 89 | 311
